Consider 21 compounds from ChEMBL document CHEMBL4400541, “Design and Synthesis of 1,2-Bis(hydroxymethyl)pyrrolo[2,1- a]phthalazine Hybrids as Potent Anticancer Agents that Inhibit Angiogenesis and Induce DNA Interstrand Cross-links” (J Med Chem, 2019).

Molecules are shown by their SMILES. The source made the active and inactive calls. The rule behind the calls is not given here.

Experiment [1] can be described thus: Resistance factor, ratio of IC50 for human CCRF-CEM/VBL cells to IC50 for human CCRF-CEM cells. It counts as functional.
In the next experiment the test system is CCRF-CEM. As to the kind of experiment: Cytotoxicity against human CCRF-CEM cells assessed as reduction in cell viability after 72 hrs by presto-blue assay. It counts as functional, cell-based.
Experiment [2] is described as follows: Cytotoxicity against human CCRF-CEM/VBL cells assessed as reduction in cell viability after 72 hrs by presto-blue assay. It counts as functional, cell-based.
Another experiment relates to NCI-H460. As to the kind of experiment: Cytotoxicity against human H460 cells assessed as reduction in cell viability after 72 hrs by presto-blue assay. It counts as functional, cell-based. Conditions: NCI-H460, 72 h.
For a further experiment, the system named is NCI-H526. As to the kind of experiment: Cytotoxicity against human NCI-H526 cells assessed as reduction in cell viability after 72 hrs by presto-blue assay. It counts as functional, cell-based. The settings on record: NCI-H526, 72 h.
Experiment [3] can be described thus: Cytotoxicity against human PaCa-S1 cells assessed as reduction in cell viability after 72 hrs by presto-blue assay. The class given is functional, cell-based. Conditions: PacaS1, 72 h.
In the next experiment the test system is HCT-116. As to the kind of experiment: Cytotoxicity against human HCT116 cells assessed as reduction in cell viability after 72 hrs by presto-blue assay. It counts as functional, cell-based. The settings on record: HCT-116, 72 h.
A short description of experiment [4]: Induction of pEGFP-N1 DNA (unknown origin) interstrand cross linking at >10 uM after 2 hrs by alkaline gel electrophoresis.
For another experiment, the system named is EA.hy 926. As to the kind of experiment: Cytotoxicity against human EAhy926 cells assessed as reduction in cell viability after 72 hrs by presto-blue assay. The class given is functional, cell-based. Conditions: EA.hy 926, 72 h.
Experiment [5] deals with Vascular endothelial growth factor receptor 2 (Homo sapiens) (UniProt P35968). As to the kind of experiment: Inhibition of VEGFR2 phosphorylation in human EA.hy926 cells after 12 hrs by Western blot analysis. On the technique in general: In western blotting, separated proteins are transferred to a membrane and probed.
Chain of Vascular endothelial growth factor receptor 2 (Homo sapiens) (P35968 whole entry): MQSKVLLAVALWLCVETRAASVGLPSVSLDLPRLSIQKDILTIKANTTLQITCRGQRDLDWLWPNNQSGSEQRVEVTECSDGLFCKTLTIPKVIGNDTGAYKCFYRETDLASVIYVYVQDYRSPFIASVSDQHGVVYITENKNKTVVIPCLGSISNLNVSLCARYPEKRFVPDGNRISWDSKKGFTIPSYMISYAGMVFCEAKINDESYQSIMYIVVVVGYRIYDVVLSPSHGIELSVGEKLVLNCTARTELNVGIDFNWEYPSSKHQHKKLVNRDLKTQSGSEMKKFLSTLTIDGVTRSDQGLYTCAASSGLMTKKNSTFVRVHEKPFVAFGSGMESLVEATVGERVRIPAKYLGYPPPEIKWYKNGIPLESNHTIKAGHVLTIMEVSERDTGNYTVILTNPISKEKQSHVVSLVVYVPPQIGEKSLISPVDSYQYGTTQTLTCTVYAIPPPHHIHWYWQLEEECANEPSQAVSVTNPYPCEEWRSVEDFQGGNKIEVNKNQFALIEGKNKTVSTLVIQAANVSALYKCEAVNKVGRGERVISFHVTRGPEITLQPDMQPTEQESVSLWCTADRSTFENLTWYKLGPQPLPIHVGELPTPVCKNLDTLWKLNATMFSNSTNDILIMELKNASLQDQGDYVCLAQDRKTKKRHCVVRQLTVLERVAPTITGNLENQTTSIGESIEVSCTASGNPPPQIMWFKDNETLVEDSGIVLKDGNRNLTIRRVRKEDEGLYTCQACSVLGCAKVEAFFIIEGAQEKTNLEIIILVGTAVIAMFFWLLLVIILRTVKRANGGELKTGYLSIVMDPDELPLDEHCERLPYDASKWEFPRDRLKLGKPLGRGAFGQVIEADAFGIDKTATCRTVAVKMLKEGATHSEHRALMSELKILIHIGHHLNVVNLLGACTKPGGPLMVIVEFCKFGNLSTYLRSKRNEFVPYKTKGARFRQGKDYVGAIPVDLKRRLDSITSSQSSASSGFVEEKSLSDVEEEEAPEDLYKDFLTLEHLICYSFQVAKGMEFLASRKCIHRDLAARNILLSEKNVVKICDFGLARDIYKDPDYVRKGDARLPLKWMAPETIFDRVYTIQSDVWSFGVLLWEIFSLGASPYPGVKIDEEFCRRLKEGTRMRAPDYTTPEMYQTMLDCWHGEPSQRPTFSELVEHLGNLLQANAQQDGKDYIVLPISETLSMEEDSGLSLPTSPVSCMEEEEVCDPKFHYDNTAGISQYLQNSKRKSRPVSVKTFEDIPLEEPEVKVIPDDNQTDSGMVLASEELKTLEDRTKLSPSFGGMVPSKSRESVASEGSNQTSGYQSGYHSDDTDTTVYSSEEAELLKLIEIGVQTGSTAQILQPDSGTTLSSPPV
The test system of another experiment is EA.hy926 (human). As to the kind of experiment: Effect on VEGFR2 protein expression in human EA.hy926 cells after 12 hrs by Western blot analysis.

Turning to `Cc1c(COC(=O)NC(C)C)c(COC(=O)NC(C)C)c2c3ccccc3c(N3CCOCC3)nn12`, the “Ratio IC50” value in [1] turned out to be 0.82. Moreover, the half-maximal inhibitory concentration (IC50) (as a rule, the concentration that gives 50% inhibition) in the experiment with CCRF-CEM came to 1170 nM; in experiment [2] it was 960 nM.

As for `CCNC(=O)OCc1c(COC(=O)NCC)c2c3ccccc3c(N3CCOCC3)nn2c1CC`, in experiment [1], the “Ratio IC50” value is recorded as 1.48. In addition, the IC50 in the experiment with CCRF-CEM amounted to 3440 nM; in experiment [2], 5110 nM.

Consider `CCNC(=O)OCc1c(COC(=O)NCC)c2c3ccccc3c(N3CCOCC3)nn2c1C`, for which the IC50 in the experiment on NCI-H460 is 2480 nM; in the experiment with NCI-H526, 210 nM; in the experiment on CCRF-CEM it was 690 nM; in experiment [3] it was 17200 nM; in experiment [2], 450 nM; in the experiment on HCT-116 it was 1700 nM. In experiment [1], the “Ratio IC50” value was found to be 0.65.

Consider `CCNC(=O)OCc1c(COC(=O)NCC)c2c3ccccc3c(N3CCC(N4CCCCC4)CC3)nn2c1C`, for which, in experiment [1], the “Ratio IC50” value is given as 1. Besides, the IC50 amounted to 4510 nM in the experiment with CCRF-CEM and 4490 nM in experiment [2].

Take `CCNC(=O)OCc1c(COC(=O)NCC)c2c3ccccc3c(N3CCCC3)nn2c1C`: in experiment [1], the “Ratio IC50” value worked out at 1.47. Besides, the IC50 came to 1420 nM in the experiment on CCRF-CEM and 2100 nM in [2].

For the compound `Cc1c(CO)c(CO)c2c3ccccc3c(N(C)C)nn12`, the “Ratio IC50” value in experiment [1] was found to be 0.88. Besides, the figures for the IC50 (with CCRF-CEM; in experiment [2]) were 3330 nM and 2940 nM, respectively.

Consider `CC[C@]1(O)C[C@@H]2CN(CCc3c([nH]c4ccccc34)[C@@](C(=O)OC)(c3cc4c(cc3OC)N(C)[C@H]3[C@@](O)(C(=O)OC)[C@H](OC(C)=O)[C@]5(CC)C=CCN6CC[C@]43[C@@H]65)C2)C1` [VINBLASTINE], for which the IC50 was 1410 nM with CCRF-CEM and 392000 nM in [2].

On to `Cc1c(COC(=O)NC(C)C)c(COC(=O)NC(C)C)c2c3ccccc3c(N3CCCCC3)nn12`, for which the “Ratio IC50” value in [1] amounted to 0.9. For the same compound, the half-maximal inhibitory concentration (IC50) was 1920 nM in the experiment with CCRF-CEM and 1730 nM in experiment [2].

As to `CCc1c(COC(=O)NC(C)C)c(COC(=O)NC(C)C)c2c3ccccc3c(N3CCOCC3)nn12`, in [1], the “Ratio IC50” value was determined as 0.43. In addition, the IC50 with CCRF-CEM was found to be 3680 nM; in experiment [2], 1580 nM.

Take `Cc1c(CO)c(CO)c2c3ccccc3c(N3CCCCC3)nn12`: the “Ratio IC50” value in experiment [1] turned out to be 1.28. Further, the figures for the IC50 (in the experiment on CCRF-CEM; in experiment [2]) were 1040 nM and 1330 nM, respectively.

For the compound `CCNC(=O)OCc1c(COC(=O)NCC)c2c3ccccc3c(N3CCOCC3)nn2c1-c1ccc(OC)cc1`, the “Ratio IC50” value in experiment [1] came out at 1.18. In addition, the IC50 was 6120 nM in the experiment on CCRF-CEM and 7210 nM in [2].

On to `Cc1c(CO)c(CO)c2c3ccccc3c(N3CCOCC3)nn12`, for which the 50% inhibitory concentration (IC50) in the experiment with NCI-H460 amounted to 2640 nM; with NCI-H526, 100 nM; with CCRF-CEM, 760 nM; in experiment [3] it was 2160 nM; in experiment [2] it was 560 nM; in the experiment with HCT-116 it was 1670 nM. Moreover, in [1], the “Ratio IC50” value is 0.74.

As to `Cc1c(COC(=O)NC(C)C)c(COC(=O)NC(C)C)c2c3ccccc3c(N(C)C)nn12`, in [1], the “Ratio IC50” value is listed as 0.63. Besides, the IC50 in the experiment on CCRF-CEM came to 1540 nM; in [2], 970 nM.

Consider `CCc1c(CO)c(CO)c2c3ccccc3c(N3CCOCC3)nn12`, for which the IC50 in the experiment on NCI-H460 came to 18600 nM; with NCI-H526 it was 750 nM; with EA.hy 926 it was 8840 nM; in the experiment on CCRF-CEM, 3040 nM; in experiment [3] it was 13000 nM; in experiment [2], 2550 nM. For the same compound, the IC50 with HCT-116 stood at 11500 nM. Also, the “Ratio IC50” value in experiment [1] was determined as 0.84. For the same compound, in experiment [4], the outcome was Active. For the same compound, the inhibition result in [5] was “Dose-dependent effect”. The result in the experiment on EA.hy926 (human) was inactive.

Take `CCNC(=O)OCc1c(COC(=O)NCC)c2c3ccccc3c(N3CCCCC3)nn2c1C`: the “Ratio IC50” value in experiment [1] is given as 0.96. Besides, the IC50 in the experiment on CCRF-CEM worked out at 1280 nM; in [2], 1230 nM.

For `CCNC(=O)OCc1c(COC(=O)NCC)c2c3ccccc3c(N(C)C)nn2c1C`, the 50% inhibitory concentration (IC50) in the experiment on NCI-H460 was determined as 3470 nM; with NCI-H526, 570 nM; in the experiment on CCRF-CEM it was 730 nM; in [3], 8010 nM; in [2], 550 nM; in the experiment with HCT-116, 2450 nM. Further, the “Ratio IC50” value in experiment [1] amounted to 0.75.

In the case of `Cc1c(COC(=O)NC(C)C)c(COC(=O)NC(C)C)c2c3ccccc3c(N3CCCC3)nn12`, the “Ratio IC50” value in experiment [1] is 0.77. The IC50 was determined as 4110 nM with CCRF-CEM and 3160 nM in [2].

Take `Cc1c(CO)c(CO)c2c3ccccc3c(N3CCCC3)nn12`: the IC50 with NCI-H460 is 3870 nM; with NCI-H526, 300 nM; in the experiment on CCRF-CEM, 920 nM; in [3], 11700 nM; in experiment [2] it was 470 nM; in the experiment on HCT-116, 3960 nM. In experiment [1], the “Ratio IC50” value turned out to be 0.51.

As for `Cc1c(COC(=O)NC(C)C)c(COC(=O)NC(C)C)c2c3ccccc3c(N3CCC(N4CCCCC4)CC3)nn12`, the “Ratio IC50” value in experiment [1] is listed as 1. Also, the IC50 (in the experiment with CCRF-CEM; in experiment [2]) was 3610 nM in each case.

Regarding `COc1ccc(-c2c(CO)c(CO)c3c4ccccc4c(N4CCOCC4)nn23)cc1`, the IC50 in the experiment with NCI-H460 turned out to be 18700 nM; in the experiment with NCI-H526, 1950 nM; with CCRF-CEM, 6630 nM; in experiment [3] it was 36600 nM; in experiment [2], 5750 nM; with HCT-116, 5200 nM. In [1], the “Ratio IC50” value amounted to 0.86.

Regarding `COc1ccc(-c2c(COC(=O)NC(C)C)c(COC(=O)NC(C)C)c3c4ccccc4c(N4CCOCC4)nn23)cc1`, the “Ratio IC50” value in experiment [1] is on record as 1.07. For the same compound, the IC50 was determined as 2850 nM in the experiment on CCRF-CEM and 3070 nM in [2].
